Assay results published in article PMC12686243, “Synthesis and preclinical evaluation of FAP-targeting radiotracers for PET and optical imaging” (EJNMMI Radiopharmacy and Chemistry, 2025).

Experiments:
[1] = test system: hFAP-HT1080 and WT-HT1080 xenografts; test: small-animal PET imaging of xenograft-bearing mice; assay type: in vivo, female NMRI-nude mice
Source text: Female athymic NMRI-nude mice (Rj:NMRI-Foxn1nu, Janvier Labs, France or Charles River, Germany) between 8 and 20 weeks of age were used. Subsequently, the prepared cells (1.0–2.0 × 10^6 hFAP/WT-HT1080 per animal) were subcutaneously injected into the right and left thigh, respectively. Xenograft tissue for real-time binding experiments was derived from animals injected with both target-positive and negative cells, however only showing growth of one tumor entity. When approaching endpoints, mice were anesthetized and euthanized. The tumor was quickly removed, frozen in − 45 °C 2-methylbutane and stored in sealed tubes at − 80 °C.
PET and X-ray computed tomography (CT) were performed in a dedicated small animal scanner (nanoScan PET/CT, Mediso, Hungary). Animals received a single dynamic scan corresponding to 0–2 h post injection. The radiotracer solution (8 – 20 MBq injected activity) was delivered via an i.v. catheter (lateral tail vein) and PET acquisition was started simultaneously with the injection. Blocking was performed by pre-injection (~ 5 min prior to tracer) of 100 nmol of FAPI-04. Three-dimensional list mode data were binned (400–600 keV energy window) and sorted into 35-time frames (15 × 10 s, 5 × 30 s, 5 × 60 s, 4 × 300 s, 3 × 600 s, 3 × 1200 s). Time frames were then reconstructed using the Tera-Tomo™ 3D algorithm with a voxel size of 0.4 mm and corrected for decay, scatter, and attenuation. PET data was analyzed using Rover (ABX GmbH, Germany). Three-dimensional volumes of interest (VOI) were delineated based on organs/tissues [xenografts, kidney, liver, shoulder and muscle (~ biceps brachii)] and a fixed threshold (35% of the measured maximum intensity) was applied. This yielded standardized uptake values (SUV = [MBq detected activity/mL tissue] / [MBq injected activity/g body weight], mL/g) for the chosen VOI.

WT-HT1080 cells = test: real-time binding control on wild type HT1080 cells; parameters: species or system human; conditions: cells lacking substantial FAP expression
Method: To determine binding kinetics (association rate constant ka, dissociation rate constant kd, and thermodynamic dissociation constant KD), real-time assay systems (LigandTracer Yellow/White for radioactivity and Green with Red/NIR + and NIR + + /IR detectors for fluorescence; Ridgeview Instruments AB, Sweden) were utilized. In a 100 mm petri dish, cells or tissue sections in medium (3–4 mL total volume), are located on one side, while the radioactive or fluorescent signal is detected on the opposite, elevated side. Rotation on an inclined base in set intervals (30 s) allows continuous measurement of signal in the target (cells/tissue) against background area (no cells/tissue). Experiments were performed at room temperature, using CO2-independent medium, usually with 0.5–1% w/v bovine serum albumin, (#1ETA, Carl Roth, Germany). Association was determined through incubation with two distinct concentrations (between 1–5 and 4.5–10 nM, 60 min each, additive) for each compound. For that purpose, the same ligand preparation was typically employed for radioactive and fluorescent detection. This was followed by replacement with fresh medium and observation of dissociation for at least 2 h. Additionally, the dissociation rate constant was further investigated beyond 6 h, either using fluorescent detection or via gallium-67 (t1/2: 78.3 h). […]

Structure (SMILES) | radioactivity in hFAP-HT1080 xenografts higher than in WT-HT1080 tumor (SUVmean) ([1]; SUVmean) [%] | increase of radioactivity in the kidney compared to tracer-only animals ([1]; pre-injection of unlabeled FAPI-04, depending on timepoint) | binding to wild type HT1080 cells (WT-HT1080 cells) | radioactivity in hFAP-HT1080 xenografts higher than in WT-HT1080 tumor (SUVmax) ([1]; SUVmax) [%]
CN(CCCN1CCN(C(=O)[C@H](CCCCNC(=O)CC[C@H](C(=O)[O-])N2CCN(CC(=O)[O-])CCN(CC(=O)[O-])CC2)NC(=O)CCOCCOCCOCCOCCNC(=O)CCCCCN2C(=CC=C3CCCC(C=CC4=[N+](CCCCS(=O)(=O)[O-])c5ccc(S(=O)(=O)O)cc5C4(C)C)=C3Oc3ccc(S(=O)(=O)O)cc3)C(C)(C)c3cc(S(=O)(=O)O)ccc32)CC1)c1ccc2nccc(C(=O)NCC(=O)N3CC(F)(F)C[C@H]3C#N)c2c1.[68Ga+3] [[^68Ga]Ga-NODAGA-FAP800] | 236 | not observed | lacking any binding | 
CN(CCCN1CCN(C(=O)[C@H](CCCCNC(=O)CC[C@H](C(=O)[O-])N2CCN(CC(=O)[O-])CCN(CC(=O)[O-])CC2)NC(=O)CCOCCOCCOCCOCCNC(=O)CCCCC[N+]2=C(C=CC=CC=C3N(CCCS(=O)(=O)O)c4ccc(S(=O)(=O)O)cc4C3(C)C)C(C)(CCCS(=O)(=O)O)c3cc(S(=O)(=O)[O-])ccc32)CC1)c1ccc2nccc(C(=O)NCC(=O)N3CC(F)(F)C[C@H]3C#N)c2c1.[68Ga+3] (some centres unmarked) [[^68Ga]Ga-NODAGA-FAP647] |  |  | lacking any binding | 392
